Results as given in patent EP1675557B1, “COMPOSITION COMPRISING A SESQUITERPENE LACTONE” (Greenpharma, priority 2003, dated 2005).

Key:
cellules de type Jurkat = assay: Apoptosis test on Jurkat cells, apoptosis induced by sodium arsenate, quantified by flow cytometry (propidium iodide); type: cell-based, humaine; details: apoptosis induced by 5 µM arséniate de sodium
Procedure: Les tests apoptotiques ont été réalisés sur des cellules de type Jurkat. La lignée cellulaire Jurkat (Clone E6-1, ATCC TIB 152), dérivée de cellule T humaine de leucémie aiguë, a été décrite dans la littérature (Weiss A. et al, Journal of Immunology, 1984, 133, 123). Les cellules ont été incubées dans un milieu de culture en présence 1 µL d'arséniate de sodium. La concentration finale en arséniate de sodium dans le milieu de culture est de 5 µM. Afin de tester l'inhibition de l'apoptose induite par l'arséniate de sodium, les cellules ont été cultivées soit en absence (témoin) soit en présence de vulgarine 2,6 µM ou d'un de ses dérivés.
L'apoptose a été quantifiée par cytometrie en flux. Les cellules sont rendues perméables et leurs noyaux sont teintés avec de l'iodure de propidium en présence de ribonucléase. Un minimum de 3000 cellules ont été analysées afin de quantifier l'apoptose cellulaire (Hotz M.A. et al, Cytometry, 1994, 15, 237).

[1] = test system: PBMCs (lymphocytes et monocytes) ou du sang total; assay: Cell viability test (XTT, mitochondrial dehydrogenase); details: relative to control of activated cells
Procedure: (§1) Les tests ont été réalisés sur des PBMCs (lymphocytes et monocytes) ou du sang total de donneurs sains humains. Tous les prélèvements ont été réalisés au Service d'Hépato-Gastroentérologie et d'Assistance Nutritive des Hôpitaux Universitaires de Strasbourg (Hôpital de Hautepierre), après approbation du protocole d'étude concernant les effets du célastrol par le CCPPRB n°1 d'Alsace.
(§2) Chez des volontaires sains, 20 ml de sang veineux périphérique sont prélevés le matin à jeun sur héparine. Le sang est ensuite dilué au demi dans de la solution saline équilibrée de Hank's dépourvue en Ca^2+ et en Mg^2+ (HBSS-CMF, Gibco BRL, Cergy, France) additionnée de 100 UI/ml de streptomycine (Biochrom KG, Berlin, Allemagne) et de 100 UI/ml de pénicilline (Biochrom KG). Les PBMCs (lymphocytes et monocytes) sont alors séparées par centrifugation sur Ficoll-Histopaque de densité 1,076 (Sigma, L'Isle d'Abeau-Chesnes, France) (30 min à 400 g) puis, après deux lavages dans du HBSS-CMF additionné d'antibiotiques (10 min à 250 g), resuspendues dans du milieu RPMI 1640 (Gibco BRL) additionné de 10 % (volume/volume) de sérum foetal de veau (SFV) inactivé à la chaleur (56°C, 30 min, Gibco BRL) et d'antibiotiques. Après comptage à la cellule de Malassez, les cellules sont incubées à raison de 2 x 10^5 cellules/puits de 1 ml dans des plaques de 24 puits (Corning Inc., New York, USA) à 37°C dans un incubateur humidifié (air 95 % - CO2 5 %), en présence ou en absence des molécules étudiées préparées dans du DMSO (diméthyl sulfoxyde, Sigma ; maximum : 1 % (v/v) par puit), avec ou sans activation par du lipopolysaccharide de Salmonella abortus equi (LPS, 5 µg/ml) (Sigma) et de la phytohémagglutinine (PHA, 1 µg/ml) (Sigma) ajoutés à T0. Après 24 heures d'incubation, les plaques sont centrifugées (15 min à 200 g), et les surnageants prélevés puis congelés à -80°C jusqu'au dosage.
(§3) La technique est basée sur le clivage par la déshydrogénase mitochondriale d'un sel de tétrazolium de couleur jaune en formazan de couleur orange. Les culots cellulaires (PBMCs et sang total) contenus dans les plaques de culture sont resuspendus dans du RPMI 1640 additionné d'hydroxide 2,3-bis-(2-méthoxy-4-nitro-5-sulfophényl)-5-[(phénylamino)carbonyl]-2H-tétrazolium (XTT, 1 mg/ml, Sigma), et de méthosulfate de phénazine (1,25 mM, Sigma), catalyseur de la réaction. Les plaques sont incubées 4 à 24 heures, puis lues en absorbance à 450 nm (filtre de référence : 620 nm). La viabilité cellulaire est estimée par rapport au témoin de cellules activées.

in vitro = details: human, pbmcs or whole blood
Procedure: as §1, §2, §3

Compound | pourcentage d'inhibition de l'apoptose (cellules de type Jurkat; 2,6 µM) [%] | Pourcentage de viabilité cellulaire ([1]; Concentration 0,01 µM, 0.01 µM) [%] | Pourcentage de viabilité cellulaire ([1]; Concentration 0,1 µM, 0.1 µM) [%] | Pourcentage de viabilité cellulaire ([1]; Concentration 1 µM) [%] | Pourcentage de viabilité cellulaire ([1]; Concentration 10 µM) [%] | Pourcentage de viabilité cellulaire ([1]; Concentration 30 µM) [%] | viability at 0.01 µM (in vitro) [%] | viability at 0.1 µM (in vitro) [%] | viability at 1 µM (in vitro) [%] | viability at 10 µM (in vitro) [%] | viability at 30 µM (in vitro) [%] | inhibition at 2.6 µM (cellules de type Jurkat; Homo sapiens, 2,6 µM, read-out: pourcentage d'inhibition de l'apoptose) [%]
4-épivulgarine | ~100 | 105 | 103 | 99 | 103 | 100 | – | – | – | – | – | –
CC1C(=O)OC2C1CCC1(C)C(=O)CCC(C)(O)C21 (centres unmarked) [2,3-dihydrovulgarine] | – | – | – | – | – | – | 110 | 104 | 105 | 108 | 105 | –
CC1C(=O)OC2C1CCC1(C)C(=O)C=CC(C)(O)C21 (centres unmarked) [Vulgarine, vulgarine] | – | – | – | – | – | – | 112 | 102 | 119 | 104 | 102 | ~100
